Measured values as given in PMC12084297, “Cytoplasmic connexin43-microtubule interactions promote glioblastoma stem-like cell maintenance and tumorigenicity” (Cell Death & Disease, 2025).

Key:
[1] = system: Cx43/α-tubulin interaction; test: STORM localization, cross-pair correlation of Cx43/α-tubulin interaction in VTC-037 GSCs; format: cell-based, human; settings: 50 μM, 24 h, n = 10
Protocol: Cells were washed once with warm PBS before fixing in 4% paraformaldehyde for 20 min at room temperature or ice-cold methanol for 5 min on ice, washed twice, and held in PBS at 4°C until immunostaining was conducted. Cells were permeabilized and blocked in 5% normal goat or donkey serum (Fisher Scientific) and 0.1% Triton X-100 in PBS for 2 h at room temperature. Primary antibodies rabbit anti-Cx43 (MilliporeSigma; C6219), mouse anti-pan Cadherin (MilliporeSigma; C1821), or mouse anti-α-tubulin (MilliporeSigma; T6199) were diluted in blocking buffer and labeling was performed overnight at 4 °C. […]
Stochastic optical reconstruction microscopy (STORM) acquisition was conducted with a Vutara 350 microscope (Bruker). […] To quantify the spatial relationship between target proteins localized by STORM, we utilized cross-pair correlation analysis. […]

LN229/GSC tumor = LN229/GSC tumor growth in mouse flank; format: in vivo, mouse (BALB/c nude), human LN229/GSC cells
Text: Animal studies were approved by the Institutional Animal Care and Use Committee (IACUC) of Virginia Tech. Female athymic nude mice (Envigo) aged 6-8 weeks were used for the maintenance and propagation of PDX GBM22 cells. PDX GBM22 tumors were maintained by serial passage in nude mouse flanks as described previously. Briefly, tumors were harvested 14–18 days post-injection and glioblastoma cells were mechanically and enzymatically dissociated. Cells were passed through a 40 µm filter and maintained as gliospheres in DMEM/F-12 without phenol red and with L-glutamine (Thermo Fisher), supplemented with 10 ng/ml fibroblast growth factor (Thermo Fisher), 10 ng/ml epidermal growth factor (Thermo Fisher), Gibco B-27 Supplement without vitamin A (Thermo Fisher), amphotericin (Fisher), and gentamycin (Fisher). The medium was changed daily for 2 days. […] After 2 days, tumors were measured and mice were randomly separated into three groups (7 mice per group), and vehicle/control (PBS), JM2-scrambled or JM2 were administered at 300 μM intratumorally every day for 14 days. Tumors were then measured by blinded investigators and harvested for analysis (see section below). Tumor volume was calculated using the formula (length × width^2)/2. […] After 7 days, tumors were measured and mice were randomly separated into three groups; vehicle/control (PBS), JM2-scrambled, and JM2 (3 mice per group). […] Tumor sizes were measured by electronic calipers at different times by blinded investigators, and tumor volume was calculated using the formula (length × width^2)/2.
All quantification was performed on experiments repeated at least three times. […] Data were analyzed for significance using Student’s t test, one-way ANOVA with Tukey’s multiple comparisons test, and presented as mean ± SD. […] Statistical significance between experimental groups was determined using chi-square (χ²) tests within the ELDA framework. […]

[2] = LN229/GSC model, 300 µM intratumorally every other day, first 31 days, n = 3

VFFKGVKDRVKGRSD [JM2]
Cx43-microtubule interaction (cross-pair correlation) [1]: impaired this interaction in situ | Tumor growth, LN229/GSC model (LN229/GSC tumor; 300 μM intratumorally every other day, 24 days, after 33 days, n = 3 mice per group, compared to control or JM2-scrambled): significant decrease in tumor growth | t(87) statistic, rate of tumor growth, JM2 vs Control (LN229/GSC tumor; [2]): -5.081 | t(87) statistic, rate of tumor growth, JM2 vs JM2-scrambled (LN229/GSC tumor; [2]): -3.873
